Results taken from patent US20130064812A1, “COMBINATION THERAPIES FOR HEMATOLOGIC MALIGNANCIES” (Gilead Calistoga LLC, priority 2011, published 2013).

Legend:
[1] = target: CIIbeta (Homo sapiens, UniProt O00750); assay: InvitroGen Adapta kinase assay, CIIbeta; format: biochemical
[2] = target: PI3Kα (Mus musculus, UniProt P42337); assay: Isoform specific cell-based assay: PDGF induced pAKT in Swiss-3T3 fibroblasts; settings: Fibroblast Cell Line, n = 12
Method: Swiss-3T3 fibroblasts and RAW-264 were seeded on a 96-well tissue culture plate and allowed to reach at least 90% confluency. […] Akt phosphorylation and total AKT was detected by ELISA. […] Results are expressed as relative [^3H] thymidine incorporation induced by IgM crosslinking.

[3] = test system: T-ALL and B-ALL leukemic cell lines; assay: ALL cell lines: AlamarBlue viability and Akt phosphorylation; format: cell-based; settings: for cellular viability in ALL cell lines: 48 hours
Method: Viability assays of cell lines were performed using the AlamarBlue assay (Invitrogen). Cells (1×10^6 per well) in a volume of 100 μL were placed in a 96-well flat-bottom plate and the compound of formula I (100 μL per well at 2× final concentration) or medium alone was added to the plates. All were performed in quadruplicate. Cells were incubated for fixed times (48 hours). After the incubation, 10 μL AlamarBlue® was added to each well. Cells were incubated for 4 hours and the optical density at 530-560 nm was obtained using a SpectraMax® M5 plate reader 2001. Cell viability was expressed as a percentage of absorption between treated cells/control sample.

[4] = human, in vivo
Method: This example provides data relating to the concentration of the compound of formula I in the blood of a healthy human subject on day 7. The concentration was monitored over a period of 12 hours, after oral administration of 50, 100, or 200 mg BID of the compound of formula I on day 7 of the study. FIG. 11 follows the plasma concentration of the drug over a period of 12 hours from administration.
In addition, single dose studies wherein 17-400 mg of the compound of formula I was administered in healthy volunteers was carried out.
Table 1, below, provides an overview of the subjects in the study, wherein either a singe dose (SD) or multiple dose (MD) of the compound of formula I is administered to a subject at varying amounts. The “n” values refer to the number of subjects in each group.

[5] = test system: mantle cell lymphoma lesions; assay: Lesion area in a patient with mantle cell lymphoma; format: in vivo, human; settings: 50 mg BID oral, 28 days (1 cycle)
Method: This example provides data relating to the area of lesions of a patient with mantle cell lymphoma after 1 cycle of treatment (28 days) with the compound of formula I. The area of 6 lesions was measured prior to treatment and after a cycle of treatment. […] The results are summarized in a bar graph found in FIG. 12.

[6] = test system: CLL; assay: ALC and lymphadenopathy in a patient with CLL; format: in vivo, human; settings: 1 cycle (28 days) oral
Method: This example provides data relating to the concentration of absolute lymphocyte count (ALC) in the blood of a patient with CLL after 1 cycle (28 days) of treatment with oral administration of the compound of formula I. The blood ALC concentration was measured over a period of 4 weeks after completion of one cycle of treatment. A 55% decrease in lymphocytosis and a 38% decrease in lymphadenopathy as a result of treatment were observed. A marked decrease in ALC concentration is observed between week 1 and week 2, FIG. 13.

[7] = test system: INA-6 cells; assay: Cleavage of caspases and PARP in INA-6 cells (western blot); format: cell-based, human; settings: INA-6, 0-5 μM, 120 h
Text: Whole-cell lysates were subjected to sodium dodecyl sulfate-polyacrylamide gel electrophoresis (SDS-PAGE) separation, transferred to Pure Nitrocellulose membranes (Bio-Rad Laboratories, Hercules, Calif.), and immunoblotted with anti-AKT, phospho(p)-AKT (Ser473, Thr 308), ERK1/2, P-ERK1/2, P-PDK1, STAT, P-STAT, P-FKRHL, P-70S6K, LC3, and PI3K/p110α Abs (Cell Signaling Danvers, Mass.); anti-p110β, PI3K/p110δ, Glyceraldehyde 3-phosphate dehydrogenase (GAPDH), α-tubulin, and actin Abs (Santa Cruz Biotechnology, CA); and anti-p110γ Ab (Alexis, San Diego, Calif.): and anti-LC3 Ab (Abgent, San Diego, Calif.).
Total cell lysates were subjected to immunoblotting using anti-caspase-3, -8, -9, PARP, and α-tubulin Abs. FL indicates full-length protein, and CL indicates cleaved protein.

[8] = test system: AKT and ERK1/2; assay: AKT and ERK1/2 in HuVEC (immunoblot); format: cell-based, human; settings: 8 h
Text: Actin was used as a loading control.

[9] = test system: relapsed or refractory indolent B-cell NHL and CLL; assay: Clinical study, combination with rituximab or bendamustine, 20 patients (Example 39); settings: human, in vivo
Method: 20 patients were enrolled, including 12 with iNHL and 8 with CLL. All patients received the compound of formula I, either 100 mg orally twice per day (BID) or 150 mg orally twice per day (BID) for as long as the patient was benefiting. Patients also received either rituximab 375 mg/m^2 administered weekly for 8 weeks, starting on Day 1 of Cycle 1, or bendamustine 90 mg/m^2 administered on Days 1 and 2 of each cycle for 6 cycles. Tumor response was evaluated according to standard criteria.

[10] = test system: CLL cells with StromaNKTert; assay: Viability / apoptosis of stroma-exposed CLL cells (Annexin V/PI); format: cell-based, human
Method: CLL cells were cultured under standardized conditions on stromal cell lines or primary NLC. Briefly, stromal cells were seeded one day prior to each experiment onto 24-well plates (Corning Life Sciences) at a concentration of 3×10^5 cells/mL/well and incubated at 37° C. in 5% CO2. Stromal cell confluence was confirmed by phase contrast microscopy, and CLL cells were then added onto the stromal cell layer at a concentration of 3×10^6 cells/mL. Cultures were then treated with compounds for the specified time periods. CLL cells were removed for analysis by gentle pipetting with media, and were then washed in PBS prior to analysis. A 24-hour co-culture time point was used unless otherwise indicated.
CLL cell viability was determined by analysis of Annexin V-FITC (BD Biosciences, San Diego, Calif.) and Propidium Iodine (PI) (Sigma) by FACS.
To determine whether PI3K inhibition increased the sensitivity of stroma-exposed CLL cells by increasing priming, PB-derived CLL cells cultured with or without StromaNKTert cells for 24 hours and were examined using Annexin-PI and BH3 profiling. […] Stromal co-culture of four CLL patient samples led to protection from apoptosis in untreated cells.

[11] = test system: MM cell lines

Sequence of PI3Kα (P42337 whole entry, canonical isoform): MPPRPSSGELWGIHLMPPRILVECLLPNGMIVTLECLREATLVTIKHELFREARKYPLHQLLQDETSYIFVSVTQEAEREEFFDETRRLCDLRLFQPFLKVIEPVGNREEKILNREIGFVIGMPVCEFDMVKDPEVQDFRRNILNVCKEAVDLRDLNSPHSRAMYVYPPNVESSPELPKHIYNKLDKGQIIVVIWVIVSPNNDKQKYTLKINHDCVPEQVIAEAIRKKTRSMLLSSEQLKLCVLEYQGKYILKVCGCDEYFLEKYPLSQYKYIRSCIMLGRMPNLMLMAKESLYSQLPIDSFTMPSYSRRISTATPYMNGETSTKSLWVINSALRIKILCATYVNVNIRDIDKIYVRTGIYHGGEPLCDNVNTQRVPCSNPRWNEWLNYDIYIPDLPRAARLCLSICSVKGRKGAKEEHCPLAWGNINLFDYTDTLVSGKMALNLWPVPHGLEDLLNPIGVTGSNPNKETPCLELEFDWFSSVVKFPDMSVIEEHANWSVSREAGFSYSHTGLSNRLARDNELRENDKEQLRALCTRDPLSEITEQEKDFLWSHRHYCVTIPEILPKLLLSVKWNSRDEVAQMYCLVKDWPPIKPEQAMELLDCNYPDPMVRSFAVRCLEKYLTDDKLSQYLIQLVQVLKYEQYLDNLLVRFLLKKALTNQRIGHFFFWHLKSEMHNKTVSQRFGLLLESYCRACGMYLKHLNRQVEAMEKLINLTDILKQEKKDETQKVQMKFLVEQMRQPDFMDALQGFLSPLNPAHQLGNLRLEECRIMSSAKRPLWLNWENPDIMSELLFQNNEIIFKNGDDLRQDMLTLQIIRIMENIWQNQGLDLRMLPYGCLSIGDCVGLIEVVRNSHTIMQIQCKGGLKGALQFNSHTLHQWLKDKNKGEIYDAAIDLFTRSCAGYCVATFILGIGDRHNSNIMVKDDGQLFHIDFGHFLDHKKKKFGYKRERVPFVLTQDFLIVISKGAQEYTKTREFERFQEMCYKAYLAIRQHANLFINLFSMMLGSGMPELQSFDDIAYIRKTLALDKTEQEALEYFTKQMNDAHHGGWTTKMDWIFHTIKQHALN
Sequence of PI3Kα (P26450 whole entry partner, canonical isoform): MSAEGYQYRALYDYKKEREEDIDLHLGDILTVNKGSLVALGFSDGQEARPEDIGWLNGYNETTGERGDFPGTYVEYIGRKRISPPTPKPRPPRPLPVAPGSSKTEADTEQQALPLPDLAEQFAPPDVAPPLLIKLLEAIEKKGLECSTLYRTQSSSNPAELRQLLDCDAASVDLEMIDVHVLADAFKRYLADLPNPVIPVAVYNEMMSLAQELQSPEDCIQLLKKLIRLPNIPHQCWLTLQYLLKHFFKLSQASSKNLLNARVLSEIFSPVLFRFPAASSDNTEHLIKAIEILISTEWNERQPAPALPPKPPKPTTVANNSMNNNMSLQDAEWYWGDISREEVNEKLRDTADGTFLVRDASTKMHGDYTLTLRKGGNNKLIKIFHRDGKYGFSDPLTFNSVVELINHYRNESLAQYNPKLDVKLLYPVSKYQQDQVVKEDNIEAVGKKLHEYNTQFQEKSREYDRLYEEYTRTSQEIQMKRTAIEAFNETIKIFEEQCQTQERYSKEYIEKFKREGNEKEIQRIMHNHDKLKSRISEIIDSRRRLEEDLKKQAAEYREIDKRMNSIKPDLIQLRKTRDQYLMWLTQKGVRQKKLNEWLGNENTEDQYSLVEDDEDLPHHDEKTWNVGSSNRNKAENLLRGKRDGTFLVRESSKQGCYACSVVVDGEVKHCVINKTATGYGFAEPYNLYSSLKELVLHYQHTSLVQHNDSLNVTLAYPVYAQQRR
Sequence of CIIbeta (O00750 whole entry, canonical isoform): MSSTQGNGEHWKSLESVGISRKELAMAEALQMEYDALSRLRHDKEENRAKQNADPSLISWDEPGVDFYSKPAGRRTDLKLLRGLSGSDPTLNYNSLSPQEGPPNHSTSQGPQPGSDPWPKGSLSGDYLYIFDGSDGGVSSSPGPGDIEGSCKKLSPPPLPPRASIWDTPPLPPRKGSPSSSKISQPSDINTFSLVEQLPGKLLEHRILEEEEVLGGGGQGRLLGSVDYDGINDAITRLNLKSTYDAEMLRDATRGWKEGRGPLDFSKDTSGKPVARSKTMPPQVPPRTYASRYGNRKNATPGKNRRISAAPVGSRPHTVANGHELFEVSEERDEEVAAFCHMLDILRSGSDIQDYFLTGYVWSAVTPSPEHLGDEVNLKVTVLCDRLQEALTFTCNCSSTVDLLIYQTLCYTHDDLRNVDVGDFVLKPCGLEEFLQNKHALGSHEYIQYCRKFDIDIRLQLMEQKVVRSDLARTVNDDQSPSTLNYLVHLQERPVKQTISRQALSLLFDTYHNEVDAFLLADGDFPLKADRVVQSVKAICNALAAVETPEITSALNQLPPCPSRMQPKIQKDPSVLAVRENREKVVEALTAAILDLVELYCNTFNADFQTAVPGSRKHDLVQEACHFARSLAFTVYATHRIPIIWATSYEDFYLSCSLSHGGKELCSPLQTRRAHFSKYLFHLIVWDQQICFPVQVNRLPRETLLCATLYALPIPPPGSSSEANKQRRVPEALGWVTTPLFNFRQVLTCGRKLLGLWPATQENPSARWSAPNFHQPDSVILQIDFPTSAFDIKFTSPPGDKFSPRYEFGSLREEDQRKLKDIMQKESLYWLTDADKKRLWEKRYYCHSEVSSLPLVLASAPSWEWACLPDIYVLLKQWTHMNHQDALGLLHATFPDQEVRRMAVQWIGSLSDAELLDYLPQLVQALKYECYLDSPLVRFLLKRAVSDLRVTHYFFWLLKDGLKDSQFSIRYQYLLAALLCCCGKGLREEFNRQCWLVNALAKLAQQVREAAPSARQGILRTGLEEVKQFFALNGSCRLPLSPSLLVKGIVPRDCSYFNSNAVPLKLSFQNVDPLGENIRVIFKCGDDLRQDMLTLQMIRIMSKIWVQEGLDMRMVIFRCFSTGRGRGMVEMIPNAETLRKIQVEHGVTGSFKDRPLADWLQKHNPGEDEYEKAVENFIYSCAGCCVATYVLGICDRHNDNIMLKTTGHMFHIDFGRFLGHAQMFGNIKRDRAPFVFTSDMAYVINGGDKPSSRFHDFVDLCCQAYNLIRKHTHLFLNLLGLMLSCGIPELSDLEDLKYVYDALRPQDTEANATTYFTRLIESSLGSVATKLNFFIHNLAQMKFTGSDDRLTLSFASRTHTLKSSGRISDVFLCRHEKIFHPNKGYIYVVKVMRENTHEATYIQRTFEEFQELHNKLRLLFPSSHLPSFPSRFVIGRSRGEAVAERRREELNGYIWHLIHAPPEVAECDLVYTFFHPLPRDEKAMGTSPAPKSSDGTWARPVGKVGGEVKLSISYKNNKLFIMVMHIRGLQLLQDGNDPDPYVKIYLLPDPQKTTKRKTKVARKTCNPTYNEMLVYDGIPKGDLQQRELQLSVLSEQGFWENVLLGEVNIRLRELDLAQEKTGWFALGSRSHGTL

## CC[C@H](Nc1ncnc2[nH]cnc12)c1nc2cccc(F)c2c(=O)n1-c1ccccc1 [Compound I, 5-fluoro-3-phenyl-2-[1-(9H-purin-6-ylamino)-propyl]-3H-quinazolin-4-one]
[1]
  IC50: > 1 µM
[2]
  EC50: > 20 µM
[3]
  Akt phosphorylation in ALL cell lines: reduction in Akt phosphorylation
  cellular viability in ALL cell lines: significant reduction in cell viability in all six cell lines
[3]; listed as compound I
  cellular viability in ALL cell lines: substantial reduction in cellular viability
[4]
  concentration level versus PI3Kδ EC50 in basophil: exceeds the PI3Kδ EC50 concentration in basophil for at least 12 hours
  tolerability in normal healthy volunteers: well tolerated at doses above commonly used therapeutic doses
[5]
  decrease in tumor burden: 44%
[6]
  decrease in lymphadenopathy: 38%
  decrease in lymphocytosis: 55%
[7]
  cleavage of caspases and PARP: Significantly increased cleavage of caspase-8, caspase-9, caspase-3, and PARP
[8]
  phosphorylation and expression of AKT and ERK1/2 in HuVEC: markedly down regulated
[9]
  dose-limiting toxicities: No dose-limiting toxicities related to the compound of formula I were observed
[10]; 10 μM, untreated less than 10%
  apoptosis in stroma-exposed CLL cells: More than 40%
[10]; four patient samples, 24 hours
  apoptosis versus control in the absence of stroma: induce more apoptosis than the control
  apoptosis versus control in the presence of stroma: induce significantly more apoptosis than the control
[10]; two patients, 24 hours, ABT-737 100 nM, compound I 10 μM
  stroma-mediated resistance (CLL cell viability): profound stroma-mediated resistance
[10]; two resistant CLL patient samples
  sensitivity of CLL cells to ABT-737 in the presence of stroma: restored sensitivity of CLL cells to ABT-737 in the presence of stroma
[11]
  cytotoxicity against p110δ-positive MM cells: induced cytotoxicity against LB and INA-6 mM cells (p110δ-positive) in a dose- and time-dependent fashion
  cytotoxicity in p110δ-negative cell lines: minimal cytotoxicity
